Test results: patent US5138069A (E. I. Du Pont de Nemours and Company, priority 1988, dated 1992)
Like-named read-outs stand apart in the source and are kept apart here.

Key:
[1] = molecular target: AII receptor; assay: Angiotensin II receptor binding (displacement of 3H-AII); details: read-out: Angiotensin II Receptor Binding IC50, rat adrenal cortical microsomes, 2 nM 3H-AII, 1 hour, room temperature
Procedure, shortened: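 The receptor source was rat adrenal cortical microsomes in Tris buffer, incubated with 2 nM ³H-AII plus or minus test compound for 1 h at room temperature. Bound and free ligand were separated by rapid filtration on glass-fibre filters. Filter-bound ³H-AII was counted by scintillation.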

[2] = system: Renal Hypertensive Rats; assay: Antihypertensive effects in renal hypertensive rats; assay type: in vivo; details: Rattus norvegicus; for minimal effective dose at 10 mg/kg / minimal effective dose at 100 mg/kg: Table 25; for minimal effective dose at 10 mg/kg / minimal effective dose at 3 mg/kg: intravenous; for minimal effective dose at 10 mg/kg: 10 mg/kg or less; for minimal effective dose at 100 mg/kg / minimal effective dose at 30 mg/kg: oral; for minimal effective dose at 100 mg/kg: 100 mg/kg or less; for minimal effective dose at 30 mg/kg / minimal effective dose at 3 mg/kg: Table 26
Procedure, shortened: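 Renal hypertensive rats (renin-driven AII elevation) dosed orally at 100 mg/kg and/or i.v. via jugular cannula at 10 mg/kg; a second set used 30 mg/kg oral and 3 mg/kg i.v. Arterial pressure recorded continuously via carotid cannula and compared with pretreatment levels.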

SMILES | IC50 ([1]; Table 25) [µM] | minimal effective dose at 10 mg/kg [2] [mg/kg] | minimal effective dose at 100 mg/kg [2] [mg/kg] | IC50 ([1]; Table 26) [µM] | minimal effective dose at 30 mg/kg [2] [mg/kg] | minimal effective dose at 3 mg/kg [2] [mg/kg] | further results
CCCCc1nc(Cl)c(C(=O)OC)n1Cc1ccc(-c2ccccc2C(=O)O)cc1 [Example 126, methyl 1-[(2'-carboxybiphenyl-4-yl)methyl]-2-butyl-4-chloroimidazole-5-carboxylate] | 0.34 | < 10 | < 100 |  |  |  | 
CCCCc1nc(Cl)c(C(N)=O)n1Cc1ccc(-c2ccccc2C(=O)O)cc1 [Example 127, 1-[(2'-carboxybiphenyl-4-yl)methyl]-2-butyl-4-chloroimidazole-5-carboxamide] | 0.15 | < 10 | < 100 |  |  |  | 
CCCCc1ncc(C=O)n1Cc1ccc(-c2ccccc2C(=O)O)cc1 [Example 130] | 0.47 | < 10 | < 100 |  |  |  | 
CCCCc1nc(Cl)c(C=O)n1Cc1ccc(-c2ccccc2-c2nnn[nH]2)cc1 [Example 132, 2-n-Butyl-4-chloro-1-[(2'-(1H-Tetrazol-5-yl)-biphenyl-4-yl)methyl]imidazole-5-carboxaldehyde] | 0.02 | < 10 | < 100 |  |  |  | 
CCCCc1nc(C(F)(F)F)c(C=O)n1Cc1ccc(-c2ccccc2-c2nnn[nH]2)cc1 [Example 133] | 0.036 | < 10 | < 100 |  |  |  | 
CCCCc1nc(Cl)c(C(=O)NC)n1Cc1ccc(-c2ccccc2C(=O)O)cc1 [Example 134] | 0.18 | < 10 | < 100 |  |  |  | 
CCCCc1nc(Cl)c(C(=O)N(C)C)n1Cc1ccc(-c2ccccc2C(=O)O)cc1 [Example 135] | 1.3 | < 10 | < 100 |  |  |  | 
CCC=Cc1nc(C(F)(F)F)c(CO)n1Cc1ccc(-c2ccccc2C(=O)O)cc1 [Example 137] | 0.053 | < 10 | < 100 |  |  |  | 
CCCc1nc(C(F)(F)F)c(C=O)n1Cc1ccc(-c2ccccc2C(=O)O)cc1 [Example 140A] |  |  |  | 0.39 | < 30 |  | 
CCCc1nc(C(F)(F)C(F)(F)F)c(C=O)n1Cc1ccc(-c2ccccc2C(=O)O)cc1 [Example 140B] |  |  |  | 0.16 | < 30 |  | 
CCCc1nc(C(F)(F)F)c(C=O)n1Cc1ccc(-c2ccccc2-c2nnn[nH]2)cc1 [Example 140C] |  |  |  | 0.02 | < 30 | < 3 | 
CCCCc1nc(Br)c(C=O)n1Cc1ccc(-c2ccccc2C(=O)O)cc1 [Example 140D] |  |  |  | 0.4 | < 30 | < 3 | 
CCCCc1nc(Br)c(C=O)n1Cc1ccc(-c2ccccc2-c2nnn[nH]2)cc1 [Example 140E] |  |  |  | 0.033 | < 30 | < 3 | 
CCC=Cc1nc(C(F)(F)F)c(C=O)n1Cc1ccc(-c2ccccc2C(=O)O)cc1 [Example 140F] |  |  |  | 0.2 | < 30 | < 3 | 
CCCCc1nc(C(F)(F)F)c(C(=O)OC)n1Cc1ccc(-c2ccccc2-c2nnn[nH]2)cc1 [Example 140H] |  |  |  | 0.076 | < 30 | < 3 | 
CCCCc1nc(C(F)(F)F)c(C(=O)OCC)n1Cc1ccc(-c2ccccc2-c2nnn[nH]2)cc1 [Example 140I] | 0.052 | < 10 | < 100 |  |  |  | 
CCCCc1nc(C(F)(F)F)c(C(N)=O)n1Cc1ccc(-c2ccccc2-c2nnn[nH]2)cc1 [Example 140J] |  |  |  | 0.027 | < 30 | < 3 | 
CCCCc1nc(I)c(C=O)n1Cc1ccc(-c2ccccc2-c2nnn[nH]2)cc1 [Example 140K] |  |  |  | 0.038 | < 30 | < 3 | 
CCCCc1nc(Cl)c(C=O)n1Cc1cccc(-c2ccccc2-c2nnn[nH]2)c1 [Example 140L] |  |  |  | 5.7 | < 30 | < 3 | 
CCCCc1nc(Cl)c(CNC(=O)OCC)n1Cc1ccc(-c2ccccc2C(=O)O)cc1 [Example 148, 2-Butyl-1-[(2'-carboxybiphenyl-4-yl)methyl]-4-chloro-5-(ethoxycarbonylaminomethyl)imidazole] |  |  |  |  |  |  | IC50 ([1]; Table 25, tested as sodium salt): 0.2 µM; minimal effective dose at 10 mg/kg ([2]; tested as sodium salt): < 10 mg/kg; minimal effective dose at 100 mg/kg ([2]; tested as sodium salt): < 100 mg/kg
